Measurements as given in ChEMBL document CHEMBL4725304, “Synthesis and evaluations of selective COX-2 inhibitory effects: Benzo[d]thiazol analogs” (Bioorg Med Chem Lett, 2020).
Values belong to the molecule of their own block, whether it stands above or below them. Calls of active or inactive are those of the source. No cut-off for these calls is given here.

How the values were obtained:
Mus musculus [1] = assay: Analgesic activity in mouse assessed as reduction in acetic acid-induced abdominal writhing at 100 mg/kg, ip relative to control; assay type: functional
Mus musculus [2] = assay: Antiinflammatory activity in mouse assessed as reduction in xylene-induced ear edema at 100 mg/kg, ip administered after prior to xylene stimulation and measured after 1 hr relative to control; assay type: functional
Mus musculus [3] = assay: Antiinflammatory activity in mouse assessed as xylene-induced ear edema at 100 mg/kg, ip administered prior to xylene stimulation and measured after 1 hr (reference value: 2.05 +/- 0.40 mg); assay type: functional
Rattus norvegicus = assay: Antiinflammatory activity against carrageenan-induced paw edema in rat assessed as inhibition of paw edema at 100 mg/kg, ip administered at 1 hr prior to carrageenan challenge and measured after 4 hrs by electronic-onkographic analysis; assay type: functional; conditions: time 5 hrs
[4] = target: T1, Prostaglandin G/H synthase 2 (Homo sapiens, UniProt P35354); assay: Inhibition of COX2 (unknown origin)
T1 sequence (P35354 whole entry): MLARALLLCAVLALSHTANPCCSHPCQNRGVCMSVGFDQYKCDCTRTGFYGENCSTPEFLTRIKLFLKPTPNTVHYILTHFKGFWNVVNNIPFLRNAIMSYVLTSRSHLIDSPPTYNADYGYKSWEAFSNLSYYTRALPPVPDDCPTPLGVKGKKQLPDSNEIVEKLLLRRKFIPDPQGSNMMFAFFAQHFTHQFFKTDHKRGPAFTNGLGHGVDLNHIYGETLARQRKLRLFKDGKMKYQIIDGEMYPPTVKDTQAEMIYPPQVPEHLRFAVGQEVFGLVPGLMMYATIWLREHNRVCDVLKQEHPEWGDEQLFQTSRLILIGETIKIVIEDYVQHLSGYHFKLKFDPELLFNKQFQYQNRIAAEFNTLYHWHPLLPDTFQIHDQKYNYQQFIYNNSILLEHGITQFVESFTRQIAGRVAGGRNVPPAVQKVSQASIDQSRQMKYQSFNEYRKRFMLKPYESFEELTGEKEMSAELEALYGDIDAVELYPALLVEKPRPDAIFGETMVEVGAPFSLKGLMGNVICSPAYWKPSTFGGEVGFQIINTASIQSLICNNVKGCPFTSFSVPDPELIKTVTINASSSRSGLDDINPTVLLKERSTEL

[5] = target: Prostaglandin G/H synthase 1 (Homo sapiens, UniProt P23219); assay: Inhibition of COX1 (unknown origin); assay type: single protein
Homo sapiens = organism: Homo sapiens; assay: Selectivity index, ratio of IC50 for COX1 (unknown origin) to IC50 for COX2 (unknown origin)

Prostaglandin G/H synthase 1, sequence (P23219 whole entry): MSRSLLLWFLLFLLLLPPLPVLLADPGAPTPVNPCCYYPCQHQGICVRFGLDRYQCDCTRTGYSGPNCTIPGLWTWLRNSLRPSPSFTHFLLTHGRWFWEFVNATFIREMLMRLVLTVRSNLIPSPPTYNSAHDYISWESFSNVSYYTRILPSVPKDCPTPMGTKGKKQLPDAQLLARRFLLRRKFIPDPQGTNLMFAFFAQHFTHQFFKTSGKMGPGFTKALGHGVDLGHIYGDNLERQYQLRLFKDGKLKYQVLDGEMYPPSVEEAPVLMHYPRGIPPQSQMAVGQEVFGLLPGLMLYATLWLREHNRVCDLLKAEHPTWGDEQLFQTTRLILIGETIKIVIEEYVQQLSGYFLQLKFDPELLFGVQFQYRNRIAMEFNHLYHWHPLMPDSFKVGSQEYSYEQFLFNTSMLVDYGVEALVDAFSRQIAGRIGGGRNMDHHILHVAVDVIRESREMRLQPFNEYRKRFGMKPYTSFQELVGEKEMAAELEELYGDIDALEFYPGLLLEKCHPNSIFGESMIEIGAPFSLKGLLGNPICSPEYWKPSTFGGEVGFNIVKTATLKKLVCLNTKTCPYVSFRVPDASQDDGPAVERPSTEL

Structure (SMILES): N#Cc1ccc(COc2nc3ccccc3s2)cc1
inhibition (Mus musculus [1]): inactive
inhibition in vivo at 100 mg/kg (Mus musculus [2]): 12.7%
Activity (Mus musculus [3]): 1.79 mg

Structure (SMILES): O=C(c1ccc([N+](=O)[O-])cc1)c1nc2ccc(F)c(Nc3ccccc3[N+](=O)[O-])c2s1
inhibition in vivo at 100 mg/kg (Rattus norvegicus): 78%

Structure (SMILES): Fc1ccc(OCCOc2nc3ccccc3s2)c(F)c1
inhibition in vivo at 100 mg/kg (Mus musculus [1]): 68.6%
inhibition in vivo at 100 mg/kg (Mus musculus [2]): 56.1%
Activity (Mus musculus [3]): 0.9 mg

IC50 [4]: 770 nM
IC50 [5]: 5550 nM
Ratio IC50 (Homo sapiens): 7.2
Structure (SMILES): Clc1ccc(COc2nc3ccccc3s2)cc1
inhibition in vivo at 100 mg/kg (Mus musculus [1]): 51.9%
inhibition in vivo at 100 mg/kg (Mus musculus [2]): 82.9%
Activity (Mus musculus [3]): 0.35 mg

IC50 [4]: 280 nM
IC50 [5]: 5220 nM
Ratio IC50 (Homo sapiens): 18.6
Structure (SMILES): Fc1cccc(COc2nc3ccccc3s2)c1
inhibition in vivo at 100 mg/kg (Mus musculus [1]): 51.9%
inhibition in vivo at 100 mg/kg (Mus musculus [2]): 86.8%
Activity (Mus musculus [3]): 0.27 mg

Structure (SMILES): Fc1ccccc1COc1nc2ccccc2s1
inhibition in vivo at 100 mg/kg (Mus musculus [1]): 51.9%
inhibition in vivo at 100 mg/kg (Mus musculus [2]): 74.6%
Activity (Mus musculus [3]): 0.52 mg

Structure (SMILES): Clc1cccc(COc2nc3ccccc3s2)c1
inhibition in vivo at 100 mg/kg (Mus musculus [1]): 51.9%
inhibition in vivo at 100 mg/kg (Mus musculus [2]): 80%
Activity (Mus musculus [3]): 0.41 mg

Structure (SMILES): Fc1ccc(OCCOc2nc3ccccc3s2)cc1
inhibition in vivo at 100 mg/kg (Mus musculus [1]): 99.9%
inhibition in vivo at 100 mg/kg (Mus musculus [2]): 72.7%
Activity (Mus musculus [3]): 0.56 mg

IC50 [4]: 370 nM
IC50 [5]: 6200 nM
Ratio IC50 (Homo sapiens): 16.8
Structure (SMILES): Fc1ccc(COc2nc3ccccc3s2)cc1
inhibition in vivo at 100 mg/kg (Mus musculus [1]): 51.9%
inhibition in vivo at 100 mg/kg (Mus musculus [2]): 90.7%
Activity (Mus musculus [3]): 0.19 mg

Structure (SMILES): Cc1cc(C)cc(COc2nc3ccccc3s2)c1
inhibition in vivo at 100 mg/kg (Mus musculus [1]): 51.9%
inhibition in vivo at 100 mg/kg (Mus musculus [2]): 0.5%
Activity (Mus musculus [3]): 2.04 mg

Structure (SMILES): Brc1ccc(COc2nc3ccccc3s2)cc1
inhibition in vivo at 100 mg/kg (Mus musculus [1]): 51.9%
inhibition in vivo at 100 mg/kg (Mus musculus [2]): 78%
Activity (Mus musculus [3]): 0.45 mg

IC50 [4]: 500 nM
IC50 [5]: 5320 nM
Ratio IC50 (Homo sapiens): 10.6
Structure (SMILES): Brc1ccc(OCCOc2nc3ccccc3s2)cc1
inhibition in vivo at 100 mg/kg (Mus musculus [1]): 68.6%
inhibition in vivo at 100 mg/kg (Mus musculus [2]): 94.6%
Activity (Mus musculus [3]): 0.11 mg

Structure (SMILES): c1ccc(OCCOc2nc3ccccc3s2)cc1
inhibition (Mus musculus [1]): inactive
inhibition in vivo at 100 mg/kg (Mus musculus [2]): 7.31%
Activity (Mus musculus [3]): 1.9 mg

Structure (SMILES): Clc1ccc(OCCOc2nc3ccccc3s2)cc1
inhibition in vivo at 100 mg/kg (Mus musculus [1]): 68.6%
inhibition in vivo at 100 mg/kg (Mus musculus [2]): 66.3%
Activity (Mus musculus [3]): 0.69 mg

Structure (SMILES): Clc1ccccc1COc1nc2ccccc2s1
inhibition (Mus musculus [1]): inactive
inhibition in vivo at 100 mg/kg (Mus musculus [2]): 14.6%
Activity (Mus musculus [3]): 1.75 mg

Structure (SMILES): COc1ccc(COc2nc3ccccc3s2)cc1
inhibition (Mus musculus [1]): inactive
inhibition in vivo at 100 mg/kg (Mus musculus [2]): 2.43%
Activity (Mus musculus [3]): 2 mg

Structure (SMILES): FC(F)(F)c1ccccc1COc1nc2ccccc2s1
inhibition (Mus musculus [1]): inactive
inhibition in vivo at 100 mg/kg (Mus musculus [2]): 9.75%
Activity (Mus musculus [3]): 2.03 mg

Structure (SMILES): FC(F)(F)c1ccc(COc2nc3ccccc3s2)cc1
inhibition in vivo at 100 mg/kg (Mus musculus [1]): 99.6%
inhibition in vivo at 100 mg/kg (Mus musculus [2]): 12.2%
Activity (Mus musculus [3]): 1.8 mg

IC50 [4]: 410 nM
IC50 [5]: 4280 nM
Ratio IC50 (Homo sapiens): 10.4
Structure (SMILES): Clc1ccc(OCCOc2nc3ccccc3s2)c(Cl)c1
inhibition in vivo at 100 mg/kg (Mus musculus [1]): 68.6%
inhibition in vivo at 100 mg/kg (Mus musculus [2]): 85.4%
Activity (Mus musculus [3]): 0.3 mg

Structure (SMILES): O=[N+]([O-])c1ccc(COc2nc3ccccc3s2)cc1
inhibition in vivo at 100 mg/kg (Mus musculus [1]): 97%
inhibition in vivo at 100 mg/kg (Mus musculus [2]): 4.39%
Activity (Mus musculus [3]): 1.96 mg

IC50 [4]: 360 nM
IC50 [5]: 5080 nM
Ratio IC50 (Homo sapiens): 14.1
Structure (SMILES): Brc1ccc(OCCOc2nc3ccccc3s2)c(Br)c1
inhibition in vivo at 100 mg/kg (Mus musculus [1]): 68.6%
inhibition in vivo at 100 mg/kg (Mus musculus [2]): 87.3%
Activity (Mus musculus [3]): 0.26 mg

Structure (SMILES): c1ccc(COc2nc3ccccc3s2)cc1
inhibition in vivo at 100 mg/kg (Mus musculus [1]): 51.9%
inhibition in vivo at 100 mg/kg (Mus musculus [2]): 68.8%
Activity (Mus musculus [3]): 0.64 mg

Structure (SMILES): COc1cc(COc2nc3ccccc3s2)cc(OC)c1
inhibition in vivo at 100 mg/kg (Mus musculus [1]): 51.9%
inhibition in vivo at 100 mg/kg (Mus musculus [2]): 44.4%
Activity (Mus musculus [3]): 1.14 mg

Structure (SMILES): Cc1ccc(COc2nc3ccccc3s2)cc1
inhibition (Mus musculus [1]): inactive
inhibition in vivo at 100 mg/kg (Mus musculus [2]): 1.95%
Activity (Mus musculus [3]): 2.01 mg

Structure (SMILES): COc1ccc2c(c1)c(CC(=O)O)c(C)n2C(=O)c1ccc(Cl)cc1 [INDOMETHACIN]
inhibition in vivo at 100 mg/kg (Mus musculus [2]): 82.4%
Activity (Mus musculus [3]): 0.36 mg

Structure (SMILES): Brc1ccccc1COc1nc2ccccc2s1
inhibition in vivo at 100 mg/kg (Mus musculus [1]): 51.9%
inhibition in vivo at 100 mg/kg (Mus musculus [2]): 75.6%
Activity (Mus musculus [3]): 0.5 mg

Structure (SMILES): Brc1cccc(COc2nc3ccccc3s2)c1
inhibition in vivo at 100 mg/kg (Mus musculus [1]): 51.9%
inhibition in vivo at 100 mg/kg (Mus musculus [2]): 77.6%
Activity (Mus musculus [3]): 0.46 mg
